Reference: ChEMBL document CHEMBL1201862, “PubChem BioAssay data set” (2004)
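Cultured in 96-well plates, cells were exposed to test compound for 48 hours across five concentrations. Here, GI50 denotes the concentration required for 50% inhibition of growth.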 Activity calls are given as the source filed them. Cut-off read from the data, not from the text of the source: active = GI50 up to about 1.1 µM and inactive = higher.

Assays:
Experiment in all cases: growth of human tumour cells (NCI), 48 h
[1] = test system: TK-10
[2] = test system: NCI/ADR-RES
[3] = test system: SNB-75
[4] = test system: HT-29
[5] = test system: M14
[6] = test system: PC-3
[7] = test system: IGROV-1
[8] = test system: OVCAR-8
[9] = test system: MDA-MB-231
[10] = test system: HOP-92
[11] = test system: NCI-H226
[12] = test system: COLO 205
[13] = test system: RXF 393
[14] = test system: UACC-257
[15] = test system: SK-MEL-2
[16] = test system: 786-0
[17] = test system: Hs-578T
[18] = test system: NCI-H460
[19] = test system: CCRF-CEM
[20] = test system: A498

Compound	GI50 [1]	GI50 [2]	GI50 [3]	GI50 [4]	GI50 [5]	GI50 [6]	GI50 [7]	GI50 [8]	GI50 [9]	GI50 [10]	GI50 [11]	GI50 [12]	GI50 [13]	GI50 [14]	GI50 [15]	GI50 [16]	GI50 [17]	GI50 [18]	GI50 [19]	GI50 [20]
O=C(O)CN(CC(=O)O)Cc1ccn(-c2cccc(-n3ccc(CN(CC(=O)O)CC(=O)O)n3)n2)n1	> 100 µM (inactive)	> 100 µM (inactive)	> 100 µM (inactive)	> 100 µM (inactive)	> 100 µM (inactive)	> 100 µM (inactive)	> 100 µM (inactive)	> 100 µM (inactive)	> 100 µM (inactive)	> 100 µM (inactive)	> 100 µM (inactive)	> 100 µM (inactive)	> 100 µM (inactive)	> 100 µM (inactive)	> 100 µM (inactive)	> 100 µM (inactive)	> 100 µM (inactive)	> 100 µM (inactive)		
O=C1c2cscc2C(=O)c2c(OCc3ccccc3)ccc(OCc3ccccc3)c21	> 100 µM (inactive)	> 100 µM (inactive)	56 µM (inactive)	58.1 µM (inactive)	> 100 µM (inactive)	78.5 µM (inactive)	83.2 µM (inactive)	> 100 µM (inactive)	> 100 µM (inactive)	> 100 µM (inactive)	> 100 µM (inactive)	> 100 µM (inactive)	75.7 µM (inactive)	> 100 µM (inactive)		58.2 µM (inactive)	> 100 µM (inactive)	> 100 µM (inactive)	53.8 µM (inactive)	
CC(=O)Oc1cc(Cl)c(C)c2c1[C@H]1CC[C@]3(C)[C@@H](OC(C)=O)CC[C@H]3[C@@H]1CC2	> 100 µM (inactive)	> 100 µM (inactive)	> 100 µM (inactive)	61.4 µM (inactive)	> 100 µM (inactive)		> 100 µM (inactive)	> 100 µM (inactive)	> 100 µM (inactive)	> 100 µM (inactive)	> 100 µM (inactive)		74.8 µM (inactive)	> 100 µM (inactive)		> 100 µM (inactive)	> 100 µM (inactive)	> 100 µM (inactive)	> 100 µM (inactive)	> 100 µM (inactive)
O=C1CC(C(=O)N2CCCCC2)n2c(=O)n(-c3ccccc3)c(=O)n2C1 (configuration not stated)	> 100 µM (inactive)	> 100 µM (inactive)	> 100 µM (inactive)	> 100 µM (inactive)	> 100 µM (inactive)	> 100 µM (inactive)	> 100 µM (inactive)	> 100 µM (inactive)	> 100 µM (inactive)		> 100 µM (inactive)	> 100 µM (inactive)	> 100 µM (inactive)	> 100 µM (inactive)		> 100 µM (inactive)	> 100 µM (inactive)	> 100 µM (inactive)		
CCOC(=O)C1C[C@H]2CO[C@H](c3ccccc3)N2C1=O (some centres not stated)	> 100 µM (inactive)	> 100 µM (inactive)	> 100 µM (inactive)	> 100 µM (inactive)	> 100 µM (inactive)	> 100 µM (inactive)	> 100 µM (inactive)	> 100 µM (inactive)	> 100 µM (inactive)	> 100 µM (inactive)	> 100 µM (inactive)	> 100 µM (inactive)	> 100 µM (inactive)	> 100 µM (inactive)	> 100 µM (inactive)	> 100 µM (inactive)	> 100 µM (inactive)	> 100 µM (inactive)	> 100 µM (inactive)	
CC[C@H]1C=CCC[C@@]2(C[C@@H]3CC[C@@H]4[C@H](C(=O)OCCCCCCCCCCCCCCCC(=O)O)[C@]5(CCC[C@@H](C)O5)NC(=[N+]34)N2)O1 [CRAMBESCIDIN 657]	0.367 µM (active)	4.61 µM (inactive)		0.116 µM (active)	0.1 µM (active)	0.1 µM (active)	0.193 µM (active)	0.23 µM (active)	0.281 µM (active)	0.153 µM (active)	0.273 µM (active)	0.139 µM (active)	0.216 µM (active)	0.12 µM (active)	0.127 µM (active)	0.0964 µM (active)	0.571 µM (active)	0.188 µM (active)	0.005 µM (active)	0.306 µM (active)
COc1ccc(/C=C2\C[C@H]3[C@@H]4CC=C5C[C@@H](OC(C)=O)CC[C@]5(C)[C@H]4CC[C@]3(C)C2=O)cc1OC		80.9 µM (inactive)	> 100 µM (inactive)	41.2 µM (inactive)	66.4 µM (inactive)	55.1 µM (inactive)	> 100 µM (inactive)	40.6 µM (inactive)		31.7 µM (inactive)	48.2 µM (inactive)	24.3 µM (inactive)	69.5 µM (inactive)	19.8 µM (inactive)	31.1 µM (inactive)	38.7 µM (inactive)	58.6 µM (inactive)	33.9 µM (inactive)	37 µM (inactive)	33 µM (inactive)
CN1CCc2c(sc3nc(Nc4ccccc4)n(N)c(=O)c23)C1	> 100 µM (inactive)	> 100 µM (inactive)		43.8 µM (inactive)	24.1 µM (inactive)	> 100 µM (inactive)	> 100 µM (inactive)	> 100 µM (inactive)	> 100 µM (inactive)		> 100 µM (inactive)	42.8 µM (inactive)	63.4 µM (inactive)	60.4 µM (inactive)	> 100 µM (inactive)	> 100 µM (inactive)	> 100 µM (inactive)	> 100 µM (inactive)	59.2 µM (inactive)	> 100 µM (inactive)
CCCCCCCCCCCCCCCCNc1ccc2c(c1)OCCOCCOCCOCCO2	11.7 µM (inactive)	2.37 µM (inactive)	3.92 µM (inactive)	2.75 µM (inactive)	3.79 µM (inactive)	2.2 µM (inactive)	2.91 µM (inactive)	2.68 µM (inactive)	2.91 µM (inactive)	2.37 µM (inactive)	1.77 µM (inactive)	1.75 µM (inactive)	2.3 µM (inactive)	2.56 µM (inactive)	2.25 µM (inactive)	3.64 µM (inactive)	2.82 µM (inactive)	3.1 µM (inactive)	2.19 µM (inactive)	
Nn1c(Cc2ccc(Cl)cc2)n[nH]c1=O	> 100 µM (inactive)	> 100 µM (inactive)	> 100 µM (inactive)	> 100 µM (inactive)	> 100 µM (inactive)		> 100 µM (inactive)	> 100 µM (inactive)	> 100 µM (inactive)	> 100 µM (inactive)	> 100 µM (inactive)	> 100 µM (inactive)	> 100 µM (inactive)	> 100 µM (inactive)	> 100 µM (inactive)	> 100 µM (inactive)	> 100 µM (inactive)	> 100 µM (inactive)	> 100 µM (inactive)	> 100 µM (inactive)
CC1=NN(C(=O)c2ccccc2O)C(=O)/C1=C/c1ccccc1O	15.2 µM (inactive)	0.558 µM (active)	0.0968 µM (active)	8.45 µM (inactive)	1.55 µM (inactive)	1.35 µM (inactive)	0.0577 µM (active)	0.557 µM (active)	0.381 µM (active)	1.27 µM (inactive)	0.977 µM (active)	20.7 µM (inactive)	0.0986 µM (active)	2.31 µM (inactive)	6.4 µM (inactive)	0.521 µM (active)		0.209 µM (active)	0.164 µM (active)	0.0327 µM (active)
N#CCC(=O)Nn1c(CC#N)nnc1Cc1ccccc1	> 100 µM (inactive)	> 100 µM (inactive)	> 100 µM (inactive)	> 100 µM (inactive)	> 100 µM (inactive)	> 100 µM (inactive)	> 100 µM (inactive)	> 100 µM (inactive)	> 100 µM (inactive)	> 100 µM (inactive)	> 100 µM (inactive)		> 100 µM (inactive)	> 100 µM (inactive)	> 100 µM (inactive)	> 100 µM (inactive)	> 100 µM (inactive)	> 100 µM (inactive)		
O=C1/C(=C/c2ccc([N+](=O)[O-])cc2)CCCc2ccccc21	> 100 µM (inactive)	> 100 µM (inactive)	83.4 µM (inactive)	> 100 µM (inactive)	> 100 µM (inactive)	> 100 µM (inactive)	> 100 µM (inactive)	> 100 µM (inactive)	> 100 µM (inactive)	> 100 µM (inactive)	> 100 µM (inactive)	> 100 µM (inactive)		> 100 µM (inactive)	> 100 µM (inactive)	> 100 µM (inactive)	25.8 µM (inactive)	> 100 µM (inactive)	> 100 µM (inactive)	
O=C1CC(=O)NC(NNS(=O)(=O)c2ccccc2)=N1	> 100 µM (inactive)	> 100 µM (inactive)	> 100 µM (inactive)	> 100 µM (inactive)	> 100 µM (inactive)	> 100 µM (inactive)	> 100 µM (inactive)	> 100 µM (inactive)	> 100 µM (inactive)	> 100 µM (inactive)	> 100 µM (inactive)	> 100 µM (inactive)	> 100 µM (inactive)	> 100 µM (inactive)	> 100 µM (inactive)	> 100 µM (inactive)	> 100 µM (inactive)	> 100 µM (inactive)	> 100 µM (inactive)	
COc1cccc(-c2nc(O)c3ccccc3n2)c1	17.9 µM (inactive)	18.1 µM (inactive)		21.2 µM (inactive)	50.2 µM (inactive)	20.1 µM (inactive)	24.5 µM (inactive)	28.4 µM (inactive)	25.3 µM (inactive)	27 µM (inactive)		37.8 µM (inactive)	25.4 µM (inactive)	21.7 µM (inactive)	39.5 µM (inactive)	14.9 µM (inactive)	19.6 µM (inactive)	23.2 µM (inactive)	> 10 µM (inactive)	22.4 µM (inactive)
